Active and inactive are the calls of the source. The calls are words filed in the database; no cut-off is given here.
How the values were obtained:
[1] = Stability in human plasma assessed as half life at 100 uM by LC-MS/MS analysis; format: ADME, cell-free
[2] = tested on: HCC1806; assay: Induction of cell cycle arrest in human HCC1806 cells assessed as increase in p21 level incubated for 16 hrs by Western blot analysis; format: functional, cell-based; conditions: dose 1-3 µM
[3] = tested on: HCC1937; assay: Induction of cell cycle arrest in human HCC1937 cells assessed as increase in p21 level incubated for 16 hrs by Western blot analysis; format: functional, cell-based; conditions: dose 1-3 µM
[4] = tested on: HCC1937; assay: Induction of apoptosis in human HCC1937 cells assessed as late apoptotic cells at 3 uM incubated for 24 hrs by Annexin V-FITC/PI staining based flow cytometry (reference value: 1.45 %); format: functional
[5] = tested on: MDA-MB-468; assay: Induction of apoptosis in human MDA-MB-468 cells assessed as necrotic cells at 1 uM incubated for 24 hrs by Annexin V-FITC/PI staining based flow cytometry (reference value: 4.11 %); format: functional
[6] = tested on: HCC1937; assay: Induction of apoptosis in human HCC1937 cells assessed as necrotic cells at 1 uM incubated for 24 hrs by Annexin V-FITC/PI staining based flow cytometry (reference value: 0.58 %); format: functional
[7] = tested on: HCC1937; assay: Effect on cell cycle distribution in human HCC1937 cells at 1 to 3 uM incubated for 16 hrs by PI staining based flow cytometry; format: functional; conditions: dose 1-3 µM
[8] = tested on: HCC1937; assay: Induction of DNA damage in human HCC1937 cells assessed as increase in gamma-H2AX level incubated for 24 hrs by Western blot analysis; format: functional, cell-based; conditions: dose 1-3 µM
[9] = tested on: HCC1937; assay: Cytotoxicity against human HCC1937 cells assessed as inhibition of cell viability incubated for 72 hrs by SRB assay; format: functional, cell-based; conditions: HCC1937, 72 h
[10] = tested on: HCC1937; assay: Induction of apoptosis in human HCC1937 cells assessed as late apoptotic cells at 1 uM incubated for 24 hrs by Annexin V-FITC/PI staining based flow cytometry (reference value: 1.45 %); format: functional
[11] = tested on: MDA-MB-468; assay: Induction of cell cycle arrest in human MDA-MB-468 cells assessed as accumulation at G2/M phase incubated for 16 hrs by PI staining based flow cytometry; format: functional; conditions: dose 1-3 µM
[12] = tested on: MDA-MB-468; assay: Induction of apoptosis in human MDA-MB-468 cells assessed as late apoptotic cells at 1 uM incubated for 24 hrs by Annexin V-FITC/PI staining based flow cytometry (reference value: 3.84 %); format: functional
[13] = tested on: MDA-MB-231; assay: Induction of apoptosis in human MDA-MB-231 cells assessed as viable cells at 1 uM incubated for 16 hrs by Annexin V-FITC/PI staining based flow cytometry (reference value: 89.5 %); format: functional; conditions: read-out: Activity
[14] = tested on: HCC1806; assay: Induction of cell cycle arrest in human HCC1806 cells assessed as decrease in accumulation at S phase incubated for 16 hrs by PI staining based flow cytometry; format: functional; conditions: dose 1-3 µM
[15] = tested on: MDA-MB-231; assay: Induction of apoptosis in human MDA-MB-231 cells assessed as early apoptotic cells at 1 uM incubated for 16 hrs by Annexin V-FITC/PI staining based flow cytometry (reference value: 1.94 %); format: functional
[16] = tested on: HCC1806; assay: Cytotoxicity against human HCC1806 cells assessed as inhibition of cell viability incubated for 72 hrs by SRB assay; format: functional, cell-based; conditions: HCC1806, 72 h
[17] = tested on: MDA-MB-468; assay: Induction of apoptosis in human MDA-MB-468 cells assessed as early apoptotic cells at 1 uM incubated for 24 hrs by Annexin V-FITC/PI staining based flow cytometry (reference value: 3.17 %); format: functional
[18] = tested on: HCC1937; assay: Induction of apoptosis in human HCC1937 cells assessed as viable cells at 3 uM incubated for 24 hrs by Annexin V-FITC/PI staining based flow cytometry (reference value: 97.2 %); format: functional; conditions: read-out: Activity
[19] = tested on: MDA-MB-231; assay: Induction of apoptosis in human MDA-MB-231 cells assessed as viable cells at 3 uM incubated for 16 hrs by Annexin V-FITC/PI staining based flow cytometry (reference value: 89.5 %); format: functional; conditions: read-out: Activity
[20] = tested on: MDA-MB-231; assay: Induction of apoptosis in human MDA-MB-231 cells assessed as early apoptotic cells at 3 uM incubated for 16 hrs by Annexin V-FITC/PI staining based flow cytometry (reference value: 1.94 %); format: functional
[21] = tested on: MDA-MB-231; assay: Induction of DNA damage in human MDA-MB-231 cells assessed as increase in gamma-H2AX level incubated for 16 hrs by Western blot analysis; format: functional, cell-based; conditions: dose 1-3 µM
[22] = tested on: MDA-MB-231; assay: Induction of apoptosis in human MDA-MB-231 cells assessed as increase in cleaved PARP-1 level incubated for 16 hrs by Western blot analysis; format: functional, cell-based; conditions: dose 1-3 µM
[23] = tested on: MDA-MB-231; assay: Induction of cell cycle arrest in human MDA-MB-231 cells assessed as decrease in accumulation at S phase incubated for 16 hrs by PI staining based flow cytometry; format: functional; conditions: dose 1-3 µM
[24] = tested on: MDA-MB-231; assay: Cytotoxicity against human MDA-MB-231 cells assessed as inhibition of cell viability incubated for 72 hrs by SRB assay; format: functional, cell-based; conditions: MDA-MB-231, 72 h
[25] = tested on: HCC1937; assay: Induction of apoptosis in human HCC1937 cells assessed as necrotic cells at 3 uM incubated for 24 hrs by Annexin V-FITC/PI staining based flow cytometry (reference value: 0.58 %); format: functional
[26] = tested on: MDA-MB-468; assay: Induction of apoptosis in human MDA-MB-468 cells assessed as viable cells at 3 uM incubated for 24 hrs by Annexin V-FITC/PI staining based flow cytometry (reference value: 88.9 %); format: functional; conditions: read-out: Activity
[27] = tested on: HCC1937; assay: Induction of apoptosis in human HCC1937 cells assessed as early apoptotic cells at 1 uM incubated for 24 hrs by Annexin V-FITC/PI staining based flow cytometry (reference value: 0.74 %); format: functional
[28] = tested on: MDA-MB-468; assay: Induction of apoptosis in human MDA-MB-468 cells assessed as viable cells at 1 uM incubated for 24 hrs by Annexin V-FITC/PI staining based flow cytometry (reference value: 88.9 %); format: functional; conditions: read-out: Activity
[29] = tested on: HCC1937; assay: Induction of apoptosis in human HCC1937 cells assessed as increase in cleaved PARP-1 level incubated for 24 hrs by Western blot analysis; format: functional, cell-based; conditions: dose 1-3 µM
[30] = tested on: HCC1806; assay: Induction of apoptosis in human HCC1806 cells assessed as viable cells at 3 uM incubated for 24 hrs by Annexin V-FITC/PI staining based flow cytometry (reference value: 95.4 %); format: functional; conditions: read-out: Activity
[31] = tested on: MDA-MB-468; assay: Effect on p21 expression in human MDA-MB-468 cells at 1 to 3 uM incubated for 16 hrs by Western blot analysis; format: functional, cell-based; conditions: dose 1-3 µM
[32] = tested on: HCC1937; assay: Induction of apoptosis in human HCC1937 cells assessed as early apoptotic cells at 3 uM incubated for 24 hrs by Annexin V-FITC/PI staining based flow cytometry (reference value: 0.74 %); format: functional
[33] = tested on: HCC1806; assay: Induction of cell cycle arrest in human HCC1806 cells assessed as accumulation at G2/M phase incubated for 16 hrs by PI staining based flow cytometry; format: functional; conditions: dose 1-3 µM
[34] = tested on: HCC1806; assay: Induction of apoptosis in human HCC1806 cells assessed as late apoptotic cells at 1 uM incubated for 24 hrs by Annexin V-FITC/PI staining based flow cytometry (reference value: 1.48 %); format: functional
[35] = tested on: MDA-MB-468; assay: Induction of apoptosis in human MDA-MB-468 cells assessed as necrotic cells at 3 uM incubated for 24 hrs by Annexin V-FITC/PI staining based flow cytometry (reference value: 4.11 %); format: functional
[36] = tested on: MDA-MB-468; assay: Cytotoxicity against human MDA-MB-468 cells assessed as inhibition of cell viability incubated for 72 hrs by SRB assay; format: functional, cell-based; conditions: MDA-MB-468, 72 h

C=C1C(=O)[C@]23[C@H](OC(=O)C45CC6CC(CC(C6)C4)C5)[C@H]1CC[C@H]2[C@@]12CO[C@]3(O)[C@@H](O)[C@@H]1C(C)(C)CC[C@@H]2O
half-life at 100 µM [1]: 144 min
Activity [2]: Dose-dependent-effect
Activity [3]: Dose-dependent-effect
Activity [4]: 24.1%
Activity [5]: 0.22%
Activity [6]: 0.33%
Activity [7]: Active
Activity [8]: Dose-dependent-effect
IC50 [9]: 620 nM
Activity [10]: 2.34%
Activity [11]: Dose-dependent-effect
Activity [12]: 7.11%
viability at 1 µM [13]: 93.5%
Activity [14]: Dose-dependent-effect
Activity [15]: 4.31%
IC50 [16]: 1400 nM
Activity [17]: 5.18%
viability at 3 µM [18]: 71.1%
viability at 3 µM [19]: 71.6%
Activity [20]: 3.51%
Activity [21]: Dose-dependent-effect
Activity [22]: Dose-dependent-effect
Activity [23]: Dose-dependent-effect
IC50 [24]: 400 nM
Activity [25]: 0.61%
viability at 3 µM [26]: 66.3%
Activity [27]: 1.23%
viability at 1 µM [28]: 87.5%
Activity [29]: Dose-dependent-effect
viability at 3 µM [30]: 74.8%
Activity [31]: No effect
Activity [32]: 4.23%
Activity [33]: Dose-dependent-effect
Activity [34]: 2.8%
Activity [35]: 0.44%
IC50 [36]: 410 nM

— ChEMBL document CHEMBL6134781, “In vitro identification of oridonin hybrids as potential anti-TNBC agents inducing cell cycle arrest and apoptosis by regulation of p21, γH2AX and cleaved PARP” (RSC Med Chem, 2024)
